Reference: patent US20190159457A1, “Combinatorial Compositions of Benzoxaboroles and Biologic Agents” (Boragen, Inc., priority 2017, published 2019)

Columns and labels:
Assay type in all cases: cell-based
Bacillus subtilis = test: Toxicity of oxaborole compound on Bacillus subtilis (MIC); details: 48 hours, about 37 °C, 1×10^5 CFU/mL
Method: The final concentration of Bacillus subtilis was 1×10^5 CFU/mL.
Plates sealed with clear polyester film (VWR) were incubated at a temperature of about 37° C. The progress of Bacillus subtilis growth was monitored at 48 hours.

[1] = system: Botrytis cinerea B05.10 (B05.10); test: Inhibition rate of fungal hyphae growth on PDA petri dish; details: Bacillus subtilis −
Method: (§1) The synergistic or additive effect of Bacillus subtilis in combination with an oxaborole compound on fungicidal compounds was evaluated by determining the inhibition rate of fungal growth on a petri dish. The oxaborole compound used for the example was BAG8. The inhibition rate was calculated as: inhibition %=(X−Y)/X*100, where X is the diameter of fungal hyphae grown on control without any fungicidal compound or beneficial bacteria.
(§2) The ability of Bacillus subtilis to inhibit growth of the four example fungal pathogens was evaluated by determining the inhibition rate of fungal hyphae on the PDA petri dishes (diameter of 100 mm) with the bacteria (initial bacterial cells: 2000CFU). 0.2 mL of Bacillus subtilis (lx 10^3, 1×10^4, 1×10^5, 1×10^6FU/mL) was spread on the PDA plates. The plates were cultured at 37° C. overnight, followed by inoculating the fresh fungal agar plugs ( 3/16 inch, diameter). The PDA plates with fungal agar plugs were cultured at 25° C. for 4-7 days, and then diameters of hyphae were measured. The inhibition rate was calculated as: inhibition %=(X−Y)/X*100, where X is the diameter of fungal hyphae grown on control without the bacteria. Inhibition rate of 100% means that the fungus cannot grow on PDA medium.
(§3) Testing was performed to compare inhibition performance of BAG8 by itself versus BAG8 in combination with Bacillis subtilis. Initially, the PDA plates (diameter of 100 mm) were prepared with various concentrations (0, 0.2, 0.5, 1, 2, 5 and 10 ug/mL) of the BAG8 compound;
(§4) Then, 0.2 mL of Bacillus subtilis (1×10^4CFU/mL) were spread onto some of the PDA plates with fungicide compounds. The […] Botrytis cinerea, Fusarium oxysporum f sp. Cubense, Mycosphaerella graminicola, and Sclerotinia sclerotiorum.
(§5) The PDA plates with the combined BAG8 and Bacillus subtilis were inoculated with the fresh fungal agar plugs ( 3/16 inch, diameters) and the plates were cultured at 25° C. for 4-7 days, and then diameters of hyphae were measured. The inhibition rate was calculated as: inhibition %=(X−Y)/X*100, where X is the diameter of fungal hyphae grown on control without the bacteria.

[2] = system: Fusarium oxysporum f sp. cubense tropical race 4 (FOC.TR4); test: as above; details: Bacillus subtilis −
Method: as §1, §2, §3, §4, §5

[3] = system: Mycosphaerella graminicola (SLB); test: as above; details: Zymoseptoria tritici, Bacillus subtilis −
Method: as §1, §2, §3, §4, §5

[4] = system: Sclerotinia sclerotiorum 1980 (Ss1980); test: as above; details: Bacillus subtilis −
Method: as §1, §2, §3, §4, §5

## OB1OCc2cc(Cl)ccc21 [BAG8, 5-chlorobenzo[c][1,2]oxaborol-1(3H)-ol]
Bacillus subtilis
  MIC: > 25 µg/mL
[1]; BAG8 0.2 ug/mL
  inhibition at 0.2 µg/mL: 10%
[1]; BAG8 0.5 ug/mL
  inhibition at 0.5 µg/mL: 23%
[1]; BAG8 1 ug/mL
  inhibition at 1 µg/mL: 69%
[1]; BAG8 2 ug/mL
  inhibition at 2 µg/mL: 98%
[2]; BAG8 0.2 ug/mL
  inhibition at 0.2 µg/mL: 9%
[2]; BAG8 0.5 ug/mL
  inhibition at 0.5 µg/mL: 47%
[2]; BAG8 1 ug/mL
  inhibition at 1 µg/mL: 95%
[2]; BAG8 2 ug/mL
  inhibition at 2 µg/mL: 94%
[3]; BAG8 0.2 ug/mL
  inhibition at 0.2 µg/mL: 6%
[3]; BAG8 0.5 ug/mL
  inhibition at 0.5 µg/mL: 38%
[3]; BAG8 1 ug/mL
  inhibition at 1 µg/mL: 93%
[3]; BAG8 2 ug/mL
  inhibition at 2 µg/mL: 96%
[4]; BAG8 0.2 ug/mL
  inhibition at 0.2 µg/mL: 12%
[4]; BAG8 0.5 ug/mL
  inhibition at 0.5 µg/mL: 48%
[4]; BAG8 1 ug/mL
  inhibition at 1 µg/mL: 94%
[4]; BAG8 2 ug/mL
  inhibition at 2 µg/mL: 98%
